Source: patent US9364459B2, “3-(indolyl)- or 3-(azaindolyl)- 4-arylmaleimide derivatives for use in the treatment of colon and gastric adenocarcinoma” (Johannes Gutenberg-Universität Mainz, priority 2009, dated 2016)

Columns and labels:
Caco-2 = test: Nicoletti apoptosis assay in Caco-2 cells; assay type: cell-based, human
Method: (§1) Nicoletti Apoptosis Assay by Cell Cycle Analysis
(§2) Cancer cells were transferred to 12-well flat-bottomed plates. […] Subsequently, cells were incubated in 1 ml medium containing various concentrations of test compounds at 37° C. with 5% CO2. After incubation the cells were washed with PBS, trypsinized, pelleted and mixed with PI buffer (containing 0.1% sodium citrate, 0.1% triton X-100, […] propidium iodide (PI)) and incubated for 1 hour at 4° C. Cell cycle sub-G1 fraction analysis was performed as described previously (Nicoletti, I. et al. (1991) J. Immunol. Methods 139, 271-279) using a flow cytometer (BD FACS Calibur™, BD Biosciences, Heidelberg, Germany). Each experiment was done in triplicate.

MKN-45 = test: Nicoletti apoptosis assay in MKN-45 cells; assay type: cell-based, human
Method: as §1, §2

SW480 = test: Nicoletti apoptosis assay in SW480 cells; assay type: cell-based, human
Method: as §1, §2

HT-29 = test: Nicoletti apoptosis assay in HT-29 cells; assay type: cell-based, human; conditions: for Activity in combination with irinotecan relative to compound A, in words: HT-29 cells
Method: as §1, §2

HCT-116 = test: Nicoletti apoptosis assay in HCT-116 cells; assay type: cell-based, human
Method: as §1, §2

VEGFR-2 = VEGFR-2 (Homo sapiens (Human), UniProt P35968); test: VEGFR-2 kinase inhibition assay (Millipore IC50Profiler); assay type: biochemical; conditions: for VEGFR-2 IC50 values, in words: Table 2
Sequence of VEGFR-2 (P35968 20-1356): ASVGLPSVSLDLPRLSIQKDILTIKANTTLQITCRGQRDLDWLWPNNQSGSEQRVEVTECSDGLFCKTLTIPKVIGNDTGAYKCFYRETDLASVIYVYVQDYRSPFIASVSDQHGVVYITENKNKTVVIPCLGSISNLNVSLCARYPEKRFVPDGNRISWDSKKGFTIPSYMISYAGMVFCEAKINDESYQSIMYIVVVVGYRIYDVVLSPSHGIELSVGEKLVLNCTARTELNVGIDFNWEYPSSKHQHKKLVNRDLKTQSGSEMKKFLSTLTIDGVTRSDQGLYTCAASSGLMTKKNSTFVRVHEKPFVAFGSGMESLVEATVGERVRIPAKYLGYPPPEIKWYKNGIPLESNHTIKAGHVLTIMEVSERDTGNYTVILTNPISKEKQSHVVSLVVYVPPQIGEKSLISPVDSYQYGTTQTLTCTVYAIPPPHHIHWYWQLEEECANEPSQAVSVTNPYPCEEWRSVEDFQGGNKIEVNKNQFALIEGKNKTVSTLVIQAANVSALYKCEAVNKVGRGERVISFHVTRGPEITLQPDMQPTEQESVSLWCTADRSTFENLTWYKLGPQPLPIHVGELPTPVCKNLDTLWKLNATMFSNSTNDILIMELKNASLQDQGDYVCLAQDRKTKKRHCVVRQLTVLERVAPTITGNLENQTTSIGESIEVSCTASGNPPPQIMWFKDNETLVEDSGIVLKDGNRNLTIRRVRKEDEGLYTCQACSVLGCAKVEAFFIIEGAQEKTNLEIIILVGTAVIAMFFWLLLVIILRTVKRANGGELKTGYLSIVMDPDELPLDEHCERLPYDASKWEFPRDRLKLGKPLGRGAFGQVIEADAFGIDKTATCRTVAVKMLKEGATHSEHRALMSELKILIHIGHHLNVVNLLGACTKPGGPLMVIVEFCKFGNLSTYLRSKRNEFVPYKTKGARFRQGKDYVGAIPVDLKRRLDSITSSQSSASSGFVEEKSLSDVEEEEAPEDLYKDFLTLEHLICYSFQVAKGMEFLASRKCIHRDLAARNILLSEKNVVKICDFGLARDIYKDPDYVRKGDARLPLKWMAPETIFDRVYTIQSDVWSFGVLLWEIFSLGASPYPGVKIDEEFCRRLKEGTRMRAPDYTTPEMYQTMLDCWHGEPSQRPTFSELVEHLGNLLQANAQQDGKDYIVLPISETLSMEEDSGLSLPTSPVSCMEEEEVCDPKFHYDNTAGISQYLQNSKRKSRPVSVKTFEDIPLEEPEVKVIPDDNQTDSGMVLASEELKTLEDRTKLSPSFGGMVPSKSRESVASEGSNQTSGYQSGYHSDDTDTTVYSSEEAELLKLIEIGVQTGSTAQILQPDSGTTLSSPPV
Source text: (§3) GSK-3β, VEGFR-2, FLT-3 Kinase Inhibition Assays
(§4) Detailed protocols can be found at: www.millipore.com/drugdiscovery/dd3/assayprotocols.

FLT-3 = FLT-3 (Homo sapiens (Human), UniProt P36888); test: FLT-3 kinase inhibition assay (Millipore IC50Profiler); assay type: biochemical
Sequence of FLT-3 (P36888 27-993): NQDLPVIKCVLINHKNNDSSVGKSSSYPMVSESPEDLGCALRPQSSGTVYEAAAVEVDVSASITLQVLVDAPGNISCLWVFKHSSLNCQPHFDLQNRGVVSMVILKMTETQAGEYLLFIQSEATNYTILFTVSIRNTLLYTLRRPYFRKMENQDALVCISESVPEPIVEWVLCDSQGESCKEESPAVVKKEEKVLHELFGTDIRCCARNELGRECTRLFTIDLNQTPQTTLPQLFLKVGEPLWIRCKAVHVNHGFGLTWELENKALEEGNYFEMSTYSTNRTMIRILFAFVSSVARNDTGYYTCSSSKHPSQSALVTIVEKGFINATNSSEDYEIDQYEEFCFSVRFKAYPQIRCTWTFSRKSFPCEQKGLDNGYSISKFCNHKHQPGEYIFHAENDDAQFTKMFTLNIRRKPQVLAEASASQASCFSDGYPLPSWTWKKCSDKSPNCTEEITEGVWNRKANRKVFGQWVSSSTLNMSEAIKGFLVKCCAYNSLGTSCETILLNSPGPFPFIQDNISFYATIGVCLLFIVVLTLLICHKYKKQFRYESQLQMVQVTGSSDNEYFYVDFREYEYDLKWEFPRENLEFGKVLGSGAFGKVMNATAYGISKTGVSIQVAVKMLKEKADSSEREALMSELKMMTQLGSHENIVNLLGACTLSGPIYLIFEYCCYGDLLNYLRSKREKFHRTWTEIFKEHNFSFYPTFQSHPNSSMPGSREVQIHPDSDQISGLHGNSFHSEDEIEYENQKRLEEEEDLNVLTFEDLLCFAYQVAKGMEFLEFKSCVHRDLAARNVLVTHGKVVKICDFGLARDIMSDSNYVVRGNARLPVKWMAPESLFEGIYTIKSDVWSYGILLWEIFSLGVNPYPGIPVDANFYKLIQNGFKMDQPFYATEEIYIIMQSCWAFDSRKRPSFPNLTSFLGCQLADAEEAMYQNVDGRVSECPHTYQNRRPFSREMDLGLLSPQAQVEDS
Method: as §3
The effect of test compounds on the activity of the protein kinases GSK-3β, VEGFR-2 and FLT-3 was evaluated based on half maximal inhibitory concentration (IC50) values determined by Millipore UK Ltd; Gemini Crescent; Dundee Technology Park; Dundee DD2 1SW; UK (IC50Profiler). Detailed protocols can be found at: www.millipore.com/drugdiscovery/dd3/assayprotocols.

GSK-3β = GSK-3β (Homo sapiens (Human), UniProt P49841); test: GSK-3β kinase inhibition assay (Millipore IC50Profiler); assay type: biochemical
Sequence of GSK-3β (P49841 whole entry): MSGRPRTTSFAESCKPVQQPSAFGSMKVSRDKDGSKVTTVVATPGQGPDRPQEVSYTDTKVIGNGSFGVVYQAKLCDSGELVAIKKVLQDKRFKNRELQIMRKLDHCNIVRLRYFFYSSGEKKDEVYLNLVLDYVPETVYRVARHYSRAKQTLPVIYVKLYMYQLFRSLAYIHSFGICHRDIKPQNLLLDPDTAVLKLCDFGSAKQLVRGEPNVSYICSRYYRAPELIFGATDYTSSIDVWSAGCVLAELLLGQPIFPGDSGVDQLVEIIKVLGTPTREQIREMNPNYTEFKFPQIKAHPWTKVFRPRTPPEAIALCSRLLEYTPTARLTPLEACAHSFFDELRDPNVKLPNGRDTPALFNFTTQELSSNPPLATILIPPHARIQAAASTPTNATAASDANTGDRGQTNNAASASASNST
Source text: as §3, §4

[1] = test system: chick embryo microvessel formation; test: Quantitative chick embryo in vivo assay of antiangiogenic activity; conditions: Gallus gallus; 26 nM drug concentration/pellet; 24 hours incubation; read-out: Inhibition of microvessel area
Method: Evaluation of Antiangiogenic Activity in a Quantitative Chick Embryo In Vivo Assay
The inhibition of angiogenesis (new blood vessel formation) was measured as described in WO2006/061212.

HUVEC = test: Nicoletti apoptosis assay (sub-G1 fraction) in HUVEC; assay type: cell-based, human; conditions: 4 days, untreated 15.4 ± 1.5%
Method: as §1, §2
The same analysis was performed with HUVEC cells. 1.5×10^4 cells were plated into each well and treated with test compounds for 4 days.
Human Umbilical Vein Endothelial Cells (HUVEC) known for mitogenic specifity for VEGF were obtained from the Department of Pathology, University Hospital of Mainz, Germany. The cells were cultured in M199 supplemented with 20% FCS, 1% Pen/Strep, 0.34% GlutaMAX-I, 25 μg/ml Endothelial Cell Growth Supplement (BD Biosciences), 25 μg/ml Heparin sodium (179 USP units/mg; Sigma, Germany) and were maintained at 37° C. and 5% CO2.

[2] = test system: HT-29 human colon adenocarcinoma cells; test: MTT viability assay in HT-29 cells; conditions: HT-29, 72 h, read-out: Viability of HT-29 cells as determined by MTT assay
Method: Evaluation of Effect on Viability (MTT Assay)
The antiproliferative activity of test compounds was determined by the 3-(4,5-dimethylthiazol-2-yl)-2,5-diphenyltetrazolium bromide (MTT) assay as described previously (Mosmann, T. et al. (1983) J. Immunol. Methods 65, 55-63). Cells in the exponential growth phase were transferred to 96-well flat-bottom plates. 10,000 viable cells contained in 200 μl cell suspension were plated into each well and incubated over night. Cells were then exposed to various concentrations of test compounds (100 μl/well) for 3 days at 37° C. with 5% CO2. Subsequently, 10 μl/well MTT stock solution (5 mg/ml; Biomol, Germany) was added and the cells were incubated at 37° C. with 5% CO2 for 4 hours. 100 μl solubilization solution (10% SDS in 0.01 M HCl) was added and the cells were incubated at 37° C. with 5% CO2 over night. Plates were read on an ELISA-Reader ELX 800 (BIO-TEK Software KC 4) at 562 nm absorbance. Each experiment was done in triplicate.
HCT-116, HT-29 and SW480 cells were cultured in RPMI1640 supplemented with 10% FCS. […] All cells were maintained at 37° C. and 5% CO2.

[3] = Table 6, 1.18 μM irinotecan alone
[4] = Table 6, 7.9 μM comp. A plus 1.18 μM irinotecan
[5] = Table 6, 7.9 μM compound A alone
[6] = Table 7, 7.9 μM compound A alone
[7] = Table 7, 7.9 μM compound A plus 20 nM topotecan
[8] = Table 8, HT-29, 7.9 μM test compound alone, drug-free control 3.4 ± 0.9%
[9] = Table 8, HT-29, 7.9 μM test compound plus 1.18 μM irinotecan

CCc1c2c(nc3ccc(OC(=O)N4CCC(N5CCCCC5)CC4)cc13)-c1cc3c(c(=O)n1C2)COC(=O)[C@]3(O)CC [irinotecan, reference compound]
Sub-G1 Fraction (Caco-2; [3]): 18.80 ± 0.8% | Sub-G1 Fraction (MKN-45; [3]): 28.97 ± 1.15% | Sub-G1 Fraction (SW480; [3]): 9.61 ± 0.91% | Sub-G1 Fraction (HT-29; Table 6, HT-29, 1.18 μM irinotecan alone): 17.40 ± 0.98% | Induction of apoptosis under irinotecan single application (Sub-G1 Fraction) (HT-29; Table 8, HT-29): Induction of apoptosis under irinotecan single application 18.3 ± 1.1% | Induction of apoptosis under irinotecan single application (Sub-G1 Fraction) (HT-29; Table 9, HT-29): Induction of apoptosis under irinotecan single application 17.4 ± 0.6% | Sub-G1 Fraction (HCT-116; [3]): 9.86 ± 2.4%

CC[C@@]1(O)C(=O)OCc2c1cc1n(c2=O)Cc2cc3c(CN(C)C)c(O)ccc3nc2-1 [topotecan, reference compound]
Sub-G1 Fraction (Caco-2; Table 7, 20 nM topotecan alone): 31.5 ± 0.08% | Sub-G1 Fraction (MKN-45; Table 7, 20 nM topotecan alone): 26.15 ± 0.49% | Sub-G1 Fraction (SW480; Table 7, 20 nM topotecan alone): 13.34 ± 0.3% | Sub-G1 Fraction (HT-29; Table 7, HT-29, 20 nM topotecan alone): 7.9 ± 0.8%

COc1cc(C2=C(c3c[nH]c4ccccc34)C(=O)NC2=O)cc(OC)c1OC [A, 3-(1H-indol-3-yl)-4-(3,4,5-trimethoxyphenyl)-maleinimid]
IC50 (VEGFR-2): 90 nM | VEGFR-2 IC50 values, in words (VEGFR-2): low nanomolar range | IC50 (FLT-3): 166 nM | FLT-3 inhibition, in words (FLT-3; Table 2): most significantly inhibited | IC50 (GSK-3β): 1100 nM | inhibition at 0.026 µM [1]: 82% | Sub-G1 Fraction (HUVEC; 0.79 μM): 25. ± 0.9% | Sub-G1 Fraction (HUVEC; 2.6 μM): 87.7 ± 2.3% | Sub-G1 Fraction (HUVEC; 7.9 μM): 88.9 ± 4.0% | Combined effect of compound A and low dosed irinotecan on apoptosis, in words (Caco-2): Significant synergistic effects | Sub-G1 Fraction (Caco-2; [4]): 43.70 ± 2.2% | Sub-G1 Fraction (Caco-2; [5]): 6.00 ± 2.3% | Sub-G1 Fraction (Caco-2; [6]): 5.9 ± 0.6% | Sub-G1 Fraction (Caco-2; [7]): 52.07 ± 2.84% | Sub-G1 Fraction (MKN-45; [4]): 51.44 ± 0.2% | Sub-G1 Fraction (MKN-45; [5]): 20.16 ± 1.6% | Sub-G1 Fraction (MKN-45; [6]): 20.2 ± 1.6% | Sub-G1 Fraction (MKN-45; [7]): 61.1 ± 1.2% | Combined effect of compound A and low dosed irinotecan on apoptosis, in words (SW480): Significant synergistic effects | Sub-G1 Fraction (SW480; [4]): 32.21 ± 0.40% | Sub-G1 Fraction (SW480; [5]): 9.96 ± 2.3% | Sub-G1 Fraction (SW480; [6]): 10 ± 2.3% | Sub-G1 Fraction (SW480; [7]): 38.81 ± 0.88% | Combined effect of compound A and low dosed irinotecan on apoptosis, in words (HT-29; HT-29): Significant synergistic effects | Combined effect of compound A and topotecan on apoptosis, in words (HT-29; HT-29): synergistically inhibited apoptosis | Induction of apoptosis in combination with irinotecan compared with vandetanib or sunitinib, in words (HT-29; HT-29, 7 days combination treatment with irinotecan): greater induction of apoptosis | Sub-G1 Fraction (HT-29; Table 6, HT-29, 7.9 μM comp. A plus 1.18 μM irinotecan): 57.40 ± 1.6% | Sub-G1 Fraction (HT-29; Table 6, HT-29, 7.9 μM compound A alone): 5.90 ± 0.6% | Sub-G1 Fraction (HT-29; Table 7, HT-29, 7.9 μM compound A alone): 5.9 ± 0.6% | Sub-G1 Fraction (HT-29; Table 7, HT-29, 7.9 μM compound A plus 20 nM topotecan): 65.6 ± 1.8% | Sub-G1 Fraction (HT-29; [8]): 4.70 ± 0.50% | Sub-G1 Fraction (HT-29; [9]): 53.10 ± 3.30% | Sub-G1 Fraction (HT-29; Table 9, HT-29, 7.9 μM compound A plus 1.18 μM Irinotecan, 7 days): 49.8 ± 1.30% | Sub-G1 Fraction (HT-29; Table 9, HT-29, single-agent treatment, 7.9 μM compound A, 7 days): 8.9 ± 0.8% | Combined effect of compound A and low dosed irinotecan on apoptosis, in words (HCT-116): Significant synergistic effects | Sub-G1 Fraction (HCT-116; [4]): 27.90 ± 3.4% | Sub-G1 Fraction (HCT-116; [5]): 3.70 ± 2.8% | viability at 2.6 µM [2]: 78.5 ± 3.7% | viability at 7.9 µM [2]: 62.9 ± 1.5% | viability at 26 µM [2]: 53.9 ± 4.8% | viability at 52 µM [2]: 42.8 ± 1.6%

COc1cc(C2=C(c3c[nH]c4ccc(Br)cc34)C(=O)NC2=O)cc(OC)c1OC [P, 3-(5-Bromo-1H-indol-3-yl)-4-(3,4,5-trimethoxyphenyl)-maleinimide]
inhibition at 0.026 µM [1]: 35% | Sub-G1 Fraction (HUVEC; 0.79 μM): 24.0 ± 1.9% | Sub-G1 Fraction (HUVEC; 2.6 μM): 31.6 ± 2.0% | Sub-G1 Fraction (HUVEC; 7.9 μM): 54.4 ± 3.2% | Activity in combination with irinotecan relative to compound A, in words (HT-29): at least comparable with compound A | Sub-G1 Fraction (HT-29; [8]): 1.81 ± 0.36% | Sub-G1 Fraction (HT-29; [9]): 55.00 ± 0.33% | melting point: 259 to 262 °C | viability at 2.6 µM [2]: 37.83 ± 0.19% | viability at 7.9 µM [2]: 20.6 ± 0.35% | viability at 26 µM [2]: 7.07 ± 1.37% | viability at 52 µM [2]: 8.68 ± 0.37%

COc1cc(C2=C(c3c[nH]c4cnccc34)C(=O)NC2=O)cc(OC)c1OC [Compound C, 3-(6-Azaindol-3-yl)-4-(3,4,5-trimethoxyphenyl)-maleinimid]
IC50 (VEGFR-2): 48 nM | VEGFR-2 IC50 values, in words (VEGFR-2): low nanomolar range | IC50 (FLT-3): 1900 nM | IC50 (GSK-3β): < 10 nM | GSK-3β IC50 values, in words (GSK-3β; Table 2): low nanomolar range | inhibition at 0.026 µM [1]: 32% | Sub-G1 Fraction (HUVEC; 0.79 μM): 48.0 ± 2.3% | Sub-G1 Fraction (HUVEC; 2.6 μM): 66.3 ± 1.0% | Sub-G1 Fraction (HT-29; [8]): 79.9 ± 4.13% | Sub-G1 Fraction (HT-29; [9]): 75.69 ± 1.77% | viability at 2.6 µM [2]: 30.4 ± 1.52% | viability at 7.9 µM [2]: 25.8 ± 3.52% | viability at 26 µM [2]: 12.7 ± 2.6% | viability at 52 µM [2]: 4.22 ± 0.44%

COc1cc(C2=C(c3c[nH]c4ccc(F)cc34)C(=O)NC2=O)cc(OC)c1OC [O, 3-(5-Fluoro-1H-indol-3-yl)-4-(3,4,5-trimethoxyphenyl)-maleinimide]
IC50 (VEGFR-2): 182 nM | inhibition at 0.026 µM [1]: 63% | Sub-G1 Fraction (HUVEC; 0.79 μM): 16.0 ± 1.2% | Sub-G1 Fraction (HUVEC; 2.6 μM): 73.3 ± 3.2% | Sub-G1 Fraction (HUVEC; 7.9 μM): 90.6 ± 5.4% | Activity in combination with irinotecan relative to compound A, in words (HT-29): at least comparable with compound A | Sub-G1 Fraction (HT-29; [8]): 3.26 ± 2.14% | Sub-G1 Fraction (HT-29; [9]): 49.69 ± 2.96% | melting point: 232 to 233 °C | viability at 2.6 µM [2]: 47.83 ± 0.34% | viability at 7.9 µM [2]: 35.5 ± 0.71% | viability at 26 µM [2]: 42.1 ± 0.58% | viability at 52 µM [2]: 17.6 ± 1.81%
